The numbers were not newly measured in patent US20120308672A1, “COMPOSITIONS FOR HAIR AND BODY APPLICATION” (EQYSS GROOMING PRODUCTS, priority 2004, published 2012), which cites them from elsewhere.

The data set deals with mosquitoes. Particulars: topical repellent.

As for `CCN(CC)C(=O)c1cccc(C)c1` [DEET, N,N,-diethyl-m-toluamide], the protection against mosquitoes result was “effective and long-lasting protection”.
